Results as given in patent US6686369B1, “α-hydrdroxylic acid derivatives, their production and use” (Abbott GmbH & Co., KG, priority 1996, dated 2004).

Columns and labels:
[1] = target: T1, cloned human ETA receptor (Homo sapiens, UniProt P25101); experiment: ETA receptor binding assay ([125I]-ET1, membranes of ETA receptor-expressing CHO cells); conditions: CHO cell membranes, 25 pM [125I]-ET1, 25° C.
T1 construct: expressed in transfected cells; host or cells: CHO cells
T1 sequence (P25101 21-427): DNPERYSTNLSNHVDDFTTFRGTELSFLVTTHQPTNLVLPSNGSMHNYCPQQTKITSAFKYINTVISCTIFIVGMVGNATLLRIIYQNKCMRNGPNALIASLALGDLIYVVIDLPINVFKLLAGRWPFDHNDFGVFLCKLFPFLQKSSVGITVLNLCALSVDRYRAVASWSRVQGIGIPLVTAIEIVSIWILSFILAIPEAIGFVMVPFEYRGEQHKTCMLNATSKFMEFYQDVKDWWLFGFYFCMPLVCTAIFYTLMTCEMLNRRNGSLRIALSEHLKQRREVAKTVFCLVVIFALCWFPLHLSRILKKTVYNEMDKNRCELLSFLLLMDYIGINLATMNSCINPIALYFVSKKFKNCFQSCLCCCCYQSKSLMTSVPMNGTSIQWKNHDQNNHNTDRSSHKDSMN
Procedure: (§1) For binding studies, cloned human ETA receptor-expressing CHO cells and guinea-pig cerebellar membranes with >60% ETB relative to ETA receptors were employed.
The ETA receptor-expressing CHO cells were grown in F12 medium with 10% fetal calf serum, 1% glutamine, 100 U/ml penicillin and 0.2% streptomycin (Gibco BRL, Gaithersburg, Md., USA). After 48 h, the cells were washed with PBS and incubated with 0.05% trypsin-containing PBS for 5 min. After neutralization with F12 medium, the cells were collected by centrifugation at 300×g. For cell lysis, the pellet was briefly washed with lysis buffer (5 mM Tris-HCl, pH 7.4 with 10% glycerol) and then incubated at a concentration of 10^7 cells/ml of lysis buffer at 4° C. for 30 min. The membranes were centrifuged at 20,000×g for 10 min, and the pellet was stored in liquid nitrogen.
(§2) For the ETA and ETB receptor binding assays, the membranes were suspended in incubation buffer (50 mM Tris-HCl, pH 7.4 with 5 mM MnCl2, 40 μg/ml bacitracin and 0.2% BSA) at a concentration of 50 μg of protein per assay mixture and incubated at 25° C. with 25 pM [125I [sic]]-ET1 (ETA receptor assay) or 25 pM [125I [sic]]-RZ3 (ETB receptor assay) in the presence and absence of test substance. The nonspecific binding was determined with 10^−7 M ET1. Filtration through GF/B glass fiber filters (Whatman, England) in a Skatron cell collector (Skatron, Lier, Norway) after 30 min separated the free and the bound radioligand, and the filters were washed with ice-cold Tris-HCl buffer, pH 7.4 with 0.2% BSA. The radioactivity collected on the filters was quantified using a Packard 2200 CA liquid scintillation counter.

ETB receptor = target: T2, ETB receptor (Cavia porcellus, UniProt H0VTF3); experiment: ETB receptor binding assay ([125I]-RZ3, guinea-pig cerebellar membranes); conditions: 25 pM [125I]-RZ3, 25° C.
T2 construct: Guinea-pig cerebella were homogenized in a Potter-Elvejhem homogenizer; from tissue; host or cells: guinea-pig cerebellum membranes
T2 sequence (H0VTF3 27-415): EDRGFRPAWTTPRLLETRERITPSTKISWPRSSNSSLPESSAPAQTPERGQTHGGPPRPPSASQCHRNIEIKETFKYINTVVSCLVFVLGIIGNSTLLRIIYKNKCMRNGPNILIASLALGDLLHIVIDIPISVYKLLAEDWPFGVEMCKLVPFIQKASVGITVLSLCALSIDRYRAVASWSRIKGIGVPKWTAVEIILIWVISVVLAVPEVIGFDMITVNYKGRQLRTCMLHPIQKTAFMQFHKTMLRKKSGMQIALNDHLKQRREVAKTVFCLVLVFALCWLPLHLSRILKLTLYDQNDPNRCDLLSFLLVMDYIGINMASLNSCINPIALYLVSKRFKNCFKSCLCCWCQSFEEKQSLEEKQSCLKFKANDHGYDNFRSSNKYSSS
Procedure: as §1
Guinea-pig cerebella were homogenized in a Potter-Elvejhem homogenizer and obtained by differential centrifugation at 1000×g for 10 min and repeated centrifugation of the supernatant at 20,000×g for 10 min.
as §2

Compound	Ki [1]	Ki (ETB receptor)
Cc1cc(C)nc(OC(C(=O)O)C(C)(c2ccccc2)c2ccccc2)n1 (racemic) [Compound I-3, 2-(4,6-Dimethyl-2-pyrimidinyloxy)-3,3-diphenylbutyric Acid]	4 nM	325 nM
COc1cc(OC)nc(OC(C(=O)O)C(C)(c2ccccc2)c2ccccc2)n1 (centres unmarked) [Compound I-1]	25 nM	950 nM
COc1cc(C)nc(OC(C(=O)O)C(C)(c2ccccc2)c2ccccc2)n1 (centres unmarked) [Compound I-2]	3.5 nM	290 nM
CCC(c1ccccc1)(c1ccccc1)C(Oc1nc(OC)cc(OC)n1)C(=O)O (centres unmarked) [Compound I-11]	20 nM	1400 nM
CCC(c1ccccc1)(c1ccccc1)C(Oc1nc(C)cc(OC)n1)C(=O)O (centres unmarked) [Compound I-12]	4 nM	250 nM
CCC(c1ccccc1)(c1ccccc1)C(Oc1nc(C)cc(C)n1)C(=O)O (centres unmarked) [Compound I-15]	4 nM	540 nM
COc1cc(C)nc(OC(C(=O)O)C(CO)(c2ccccc2)c2ccccc2)n1 (centres unmarked) [Compound I-20]	5 nM	445 nM
